For one test, the system named is D. immitis iL3 larvae. Kind of test: in vitro molting of infective third-stage larvae (iL3) into L4. In kind it is cell-based, Dirofilaria immitis.
For another test, the target named is CelDAF-12 (Caenorhabditis elegans, UniProt G5EFF5). Kind of test: cell-based.

This is an account of results in paper PMC7343802, “The development of the dog heartworm is highly sensitive to sterols which activate the orthologue of the nuclear receptor DAF-12” (Scientific Reports, 2020).

CelDAF-12, sequence (G5EFF5 516-753): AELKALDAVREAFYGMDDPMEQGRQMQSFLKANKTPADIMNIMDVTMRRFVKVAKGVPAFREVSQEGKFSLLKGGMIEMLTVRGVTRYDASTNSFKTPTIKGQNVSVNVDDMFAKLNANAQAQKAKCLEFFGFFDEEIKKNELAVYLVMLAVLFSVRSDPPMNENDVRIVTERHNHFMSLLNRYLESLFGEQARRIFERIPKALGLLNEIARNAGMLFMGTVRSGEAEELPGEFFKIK

For orientation: EC50 means the concentration at which the effect is half-maximal. Lower therefore signals greater potency. For the compound `CC(CCCC(C)C1CCC2C3=CCC4CC(=O)CCC4(C)C3CCC21C)C(=O)O` [Δ7-DA, (25S)-Δ7-dafachronic acid], in the test with D. immitis iL3 larvae, the “number of free cuticles (completed molt, L4) versus DMSO control” value is given as “significantly higher” and the “start of the molting process (day in culture)” value is 3 to 4 days. Further, the “overall effect on molting of iL3 into L4” value in the test on D. immitis iL3 larvae (10 µM) is listed as “induced a rapid development of iL3 into L4”. Further, the “percentage of iL3 which had initiated but not completed the molt, compared to DMSO control” value in the test with D. immitis iL3 larvae (10 µM, day 5 or 6) is listed as “low percentage”. Moreover, the 50% effective concentration (EC50) at CelDAF-12 stood at 16 nM.
